Here are results for one compound from patent US10322184B2, “Emulsions for intrapulmonary delivery” (Carnegie Mellon University, priority 2016, dated 2019).

This assay has as its system Pseudomonas aeruginosa. The assay can be described thus: Agar well diffusion assessment of emulsified tobramycin availability (effective tobramycin concentration). Particulars: aqueous standard solution, 37° C., 24 hours. The class given is cell-based. Here is the method: The presence and availability of emulsified tobramycin was quantified via the commonly used agar well diffusion method of measuring antibiotic content. In this method, the surface of LB agar plates is inoculated with 500 μL of mid-log growth Pseudomonas aeruginosa in tryptic soy broth. Similar methods are disclosed in Omri et al. Pulmonary Retention of Free and Liposome-Encapsulated Tobramycin after Intratracheal Administration in Uninfected Rats and Rats Infected with Pseudomonas aeruginosa. Antimicrobial Agents and Chemotherapy. 1994, 38: 1090-1095. […] Following this evaluation, the effects of Vaq and Caq were assessed using emulsions with Cfs=2 mg/mL H2O of FSH-PEG, Vaq=0.5-2.5%, and Caq=40-200 mg/mL. […]
For each formulation evaluated, approximately 10 mL of emulsion was prepared in a 15-mL centrifuge tube and allowed to sit at room temperature without agitation for five minutes before sampling. […] Following incubation, circular inhibition zones produced by tobramycin that had diffused into the agar were imaged and measured. Interpolation from the inhibition zones of aqueous standard solutions was then used to determine effective tobramycin concentrations (i.e., the aqueous tobramycin concentration resulting in an identical inhibition area) for each emulsion evaluated. […] Three separate trials were performed for each emulsion formulation evaluated. […]
In general terms: A growth-free zone around the sample is the usual read-out of agar diffusion tests.

Molecules are shown by their SMILES.

Turning to `NC[C@H]1O[C@H](O[C@H]2[C@H](O)[C@@H](O[C@H]3O[C@H](CO)[C@@H](O)[C@H](N)[C@H]3O)[C@H](N)C[C@@H]2N)[C@H](N)C[C@@H]1O` [tobramycin], the “Aqueous tobramycin concentration producing the smallest measurable inhibition zone” value worked out at 5 µg/mL.
